In ChEMBL document CHEMBL2040759, “Design, synthesis and anticancer activity of nitric oxide donating/chalcone hybrids” (2012) one finds growth data, which are given here for one compound.

This experiment has as its system UACC-62. The experiment in a line: Growth inhibition of human UACC62 cells assessed as cell growth at 10^-5 M after 48 hrs by SRB assay. Format: functional. The following applies: UACC-62, 48 h, read-out: Activity.

Take `C/C(=N\O)c1ccc(OCC(=O)Nc2ccc(C(=O)/C=C/c3ccc(Cl)cc3)cc2)cc1`: the growth at 10 µM was 37.5%.
